Source: patent US9060541B2, “Sterilizer for foods” (Kawakami Co., Ltd., priority 2009, dated 2015)

Experiments:
Type in all cases: cell-based
Parameters in all cases: key: D: There is no sterilization effect.; C: There is a sterilization effect in step (1) but no sterilization effect in step (2).; B: There is a sterilization effect up to step (2) but no sterilization effect in step (3).; A: There is a sterilization effect up to step (3)
[1] = system: Enteroinvasive Escherichia coli O28ac KX-E63; assay: Comparison test of sterilization effects against various food poisoning microbes
[2] = system: Staphylococcus aureus (209P); assay: Sterilization effect determination test (Fujimoto's modified method of the Kelsey-Sykes method); details: Table 2; compositions of calcinated calcium and ethanol, water remainder; 20° C.; steps (1)-(3); listed as Ethanol 30 wt %
[3] = system: Enteroaggregative Escherichia coli O111:H21 K-H-6; assay: Comparison test of sterilization effects against various food poisoning microbes
Escherichia coli (NIHJ) = assay: Sterilization effect determination test (Fujimoto's modified method of the Kelsey-Sykes method); details: Table 1; compositions of calcinated calcium and ethanol, water remainder; 20° C.; steps (1)-(3); listed as Ethanol 30 wt %
[4] = system: Shigella boydii serotype 4 KX-H288; assay: Comparison test of sterilization effects against various food poisoning microbes
[5] = Table 7, test microbe solution without yeast extract
[6] = Table 8, yeast extract 4 weight % blended in test microbe solution

| Compound | Sterilization effect [1, 5] | Sterilization effect [1, 6] | Sterilization effect [2] | Sterilization effect [3, 5] | Sterilization effect [3, 6] | Sterilization effect (Escherichia coli (NIHJ)) | Sterilization effect [4, 5] | Sterilization effect [4, 6] |
| --- | --- | --- | --- | --- | --- | --- | --- | --- |
| CCO [EtOH 30%, ethanol] | C | C | D | D | D | C | D | D |
| [Na+].[O-]Cl [S.H 150 ppm, sodium hypochlorite] | A | D |  | A | D |  | A | D |
